What was measured:
[1] = biological target: T1, WGR domain-nucleosome complexes (Homo sapiens, UniProt Q9UGN5); test: spFRET microscopy of WGR domain-nucleosome complexes; details: Np nucleosomes, WGR domain plus 2 mM Zn2+
T1 construct: WGR domain of PARP2 (residues 77–220) into pET-15b-TEV expression vector; 6xHis (pET-15b-TEV) (N, cleaved yes); made in house; host or cells: Escherichia coli Rosetta2 (DE3) pLysS (WGR)
Method: In the study of nucleosome-PARP2 interactions, nucleosomes (1–2 nM) were incubated with PARP2 (12.5–200 nM) in buffer A (50 mM Tris-HCl pH 7.5; 40 mM NaCl; 0.5 mM β-mercaptoethanol (β-ME); 0.1% NP40) at 25 °C for 30 min. When indicated, buffer A was supplemented with 50 µM – 5 mM ZnCl2, 5 mM CaCl2 or 5 mM MgCl2. To study the stability of Zn^2+-PARP2-nucleosome complexes, PARP2-nucleosome complexes that have been formed for 30 min in buffer A containing 50 nM PARP2 and 0.15 mM Zn^2+ ions were mixed with EDTA (10 mM) and incubated for 15 min. In the studies of PARylation, NAD+ (0.5–10 µM) was mixed with nucleosomes (1–2 nM) and PARP2 (100 nM) in buffer A and incubated for 45 min at 25 °C.
spFRET measurements in solution were performed as described previously. Each measured single nucleosome was characterized by FRET between Cy3 and Cy5 labels calculated as a proximity ratio (EPR):1 [drawing 1]
Where I3 and I5 are fluorescence intensities of Cy3 and Cy5, respectively, and coefficients 0.19 and 0.81 provide correction for the spectral cross-talk between Cy3 and Cy5 detection channels. […] Relative frequency distributions of nucleosomes by EPR values, i.e. EPR profiles, (2000–5000 nucleosomes per experiment; 3 independent experiments) were plotted and further analyzed as a superposition of several normal (Gaussian) distributions for nucleosomes or nucleosome-PARP2 complexes. […]

PARP2 [2] = biological target: T2, PARP2 (Mus musculus, UniProt O88554); test: Tryptophan fluorescence spectroscopy of PARP2 with Zn2+; type: binding; parameters: Recombinant mouse full-length PARP2 was obtained in the baculovirus expression system; made in house; host or cells: Sf9 insect cells (baculovirus); gift of Prof; O. Lavrik; details: PARP2 0.5 µM, Zn2+ 377 µM
T2 sequence (O88554 whole entry): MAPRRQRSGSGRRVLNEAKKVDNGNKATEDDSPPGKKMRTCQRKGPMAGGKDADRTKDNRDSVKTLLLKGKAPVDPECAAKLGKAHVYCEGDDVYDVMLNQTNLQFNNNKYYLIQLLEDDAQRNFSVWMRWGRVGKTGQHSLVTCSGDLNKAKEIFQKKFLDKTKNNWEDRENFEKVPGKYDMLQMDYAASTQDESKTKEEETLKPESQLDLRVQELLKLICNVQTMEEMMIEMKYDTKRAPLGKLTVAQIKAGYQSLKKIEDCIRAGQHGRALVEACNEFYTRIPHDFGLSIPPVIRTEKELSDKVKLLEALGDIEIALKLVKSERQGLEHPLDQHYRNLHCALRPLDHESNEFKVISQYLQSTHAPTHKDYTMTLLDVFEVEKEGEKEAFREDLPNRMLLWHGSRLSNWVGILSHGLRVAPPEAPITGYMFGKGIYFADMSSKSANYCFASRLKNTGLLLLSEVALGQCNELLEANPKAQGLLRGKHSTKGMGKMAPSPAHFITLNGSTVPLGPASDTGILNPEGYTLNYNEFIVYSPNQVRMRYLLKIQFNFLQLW
Method: Fluorescence spectra of Trp residues were measured in the 300–450 nm spectral range at the 270 nm excitation wavelengths using the Cary Eclipse spectrofluorometer (Varian/Agilent, USA).
Fluorescence of PARP2 was measured at 0.5 µM in a buffer containing 7% glycerin, 33 µM HEPES (pH 8.0), 75 mM NaCl, 89 µM EDTA, 27 µM ZnCl2, 1.5 µM TCEP. A solution of PARP2 was complemented with ZnCl2 to 377 µM.

PARP2 [3] = biological target: T2, PARP2; test: Circular dichroism spectroscopy of PARP2 (BeStSel secondary structure analysis); parameters: Recombinant mouse full-length PARP2 was obtained in the baculovirus expression system; made in house; host or cells: Sf9 insect cells (baculovirus); gift of Prof; O. Lavrik; details: 0.3 mM Zn2+, 0.7 mM Ca2+ or 0.7 mM Mg2+
Method: CD spectra of proteins were recorded within the 190-250 nm spectral range with 0.2 nm step using Jasco-810 spectrophotometer (Jasco, Japan) and the quartz […]® cuvette of 0.1 mm thickness (Hellma, Germany. Secondary structure analysis was performed using BeStSel webserver. To improve the reliability of the analysis, the content of canonical secondary structures of various types was predicted for 3-6 independent measurements, and the values were averaged. The statistical significance of the secondary structure difference was determined using the multiple t-test.

EPR maximum of the new peak in the EPR profile [1]: 0.4
intensity of fluorescence spectrum of tryptophan residues of PARP2 after addition of ions (PARP2 [2]): increased
effect of ions on the CD spectrum / conformation of PARP2 (PARP2 [3]): small conformational changes
Structure (SMILES): [Cl-].[Cl-].[Zn+2] [Zn2+, ZnCl2]

Source: article PMC12209172, “Poly(ADP-ribose)polymerase 2 is zinc-dependent enzyme and nucleosome reorganizer” (Cellular and Molecular Life Sciences: CMLS, 2025)
